In patent US6372926B1, “17-side chain alkynyl-and 20-oxopregna-derivatives of vitamin D, methods for their production and pharmaceutical compositions thereof” (Research Institute for Medicine and Chemistry, priority 1997, dated 2002):

How the values were obtained:
progesterone activity = test: anti-progesterone activity (applicant's finding); settings: evidenced by antifertility activity, anti-progesterone assay and inhibition of growth of T47D and MCF-7 cell lines; no data given
progesterone receptor = molecular target: T1, progesterone receptor (Homo sapiens, UniProt P06401); settings: as reported by DeLuca and coworkers; cited from earlier work
T1 sequence (P06401 1-933): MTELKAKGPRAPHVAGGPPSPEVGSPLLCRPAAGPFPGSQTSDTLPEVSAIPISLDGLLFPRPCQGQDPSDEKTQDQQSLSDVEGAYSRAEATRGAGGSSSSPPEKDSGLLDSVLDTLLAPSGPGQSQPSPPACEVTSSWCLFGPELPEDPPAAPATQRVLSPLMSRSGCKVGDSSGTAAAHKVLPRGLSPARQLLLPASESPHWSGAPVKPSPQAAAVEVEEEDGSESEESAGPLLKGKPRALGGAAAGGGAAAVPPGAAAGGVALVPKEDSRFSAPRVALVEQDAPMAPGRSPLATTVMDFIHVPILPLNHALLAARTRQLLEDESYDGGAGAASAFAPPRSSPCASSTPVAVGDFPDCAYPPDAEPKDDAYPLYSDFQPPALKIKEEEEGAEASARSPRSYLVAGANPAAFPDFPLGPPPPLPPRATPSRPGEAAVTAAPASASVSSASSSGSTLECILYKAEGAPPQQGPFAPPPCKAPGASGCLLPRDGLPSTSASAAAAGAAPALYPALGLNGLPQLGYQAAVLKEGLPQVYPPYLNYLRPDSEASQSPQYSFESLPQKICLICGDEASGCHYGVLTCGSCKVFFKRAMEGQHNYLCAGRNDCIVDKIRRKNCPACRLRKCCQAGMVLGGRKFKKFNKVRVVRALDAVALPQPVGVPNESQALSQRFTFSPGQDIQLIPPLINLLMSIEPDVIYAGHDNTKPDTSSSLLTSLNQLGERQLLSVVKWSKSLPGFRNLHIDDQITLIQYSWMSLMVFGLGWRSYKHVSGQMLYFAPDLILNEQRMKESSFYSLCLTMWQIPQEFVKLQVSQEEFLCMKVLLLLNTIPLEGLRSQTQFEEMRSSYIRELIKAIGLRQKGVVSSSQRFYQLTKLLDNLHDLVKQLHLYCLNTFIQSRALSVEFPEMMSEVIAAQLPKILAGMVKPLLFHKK

glutocorticoid receptor = molecular target: T2, glutocorticoid receptor (Homo sapiens, UniProt P04150); settings: in contrast to RU 486; literature report; cited from earlier work
T2 sequence (P04150 1-777): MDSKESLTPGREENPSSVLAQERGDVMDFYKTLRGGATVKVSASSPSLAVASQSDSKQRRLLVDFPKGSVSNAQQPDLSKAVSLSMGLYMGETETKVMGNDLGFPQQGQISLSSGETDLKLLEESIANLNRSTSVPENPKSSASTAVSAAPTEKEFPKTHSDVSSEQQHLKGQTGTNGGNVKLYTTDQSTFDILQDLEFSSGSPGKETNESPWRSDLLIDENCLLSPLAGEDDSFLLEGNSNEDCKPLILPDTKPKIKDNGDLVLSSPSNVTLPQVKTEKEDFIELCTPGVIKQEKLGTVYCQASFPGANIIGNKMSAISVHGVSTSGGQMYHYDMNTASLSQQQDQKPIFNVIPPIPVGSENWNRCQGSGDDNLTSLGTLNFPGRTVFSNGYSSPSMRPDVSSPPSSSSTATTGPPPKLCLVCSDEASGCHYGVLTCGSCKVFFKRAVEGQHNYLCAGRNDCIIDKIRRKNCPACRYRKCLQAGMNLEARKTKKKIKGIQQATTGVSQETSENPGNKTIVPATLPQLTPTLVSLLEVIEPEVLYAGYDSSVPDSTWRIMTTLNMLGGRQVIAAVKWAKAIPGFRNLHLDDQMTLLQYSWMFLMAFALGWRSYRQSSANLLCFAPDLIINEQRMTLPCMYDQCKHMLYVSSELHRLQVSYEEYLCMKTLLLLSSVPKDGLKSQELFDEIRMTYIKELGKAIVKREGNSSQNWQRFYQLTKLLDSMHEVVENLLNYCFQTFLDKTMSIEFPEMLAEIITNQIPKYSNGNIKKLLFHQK

[1] = system: human breast cancer cells (T47D); settings: Endocrine Society 1994 Abstract No. 1744; cited from earlier work

SMILES	antagonism of progesterone activity (progesterone activity)	ability to bind to the progesterone receptor (progesterone receptor)	binding to the glucocorticoid receptor (glutocorticoid receptor)	suppression of in vitro growth of human breast cancer cells (T47D) [1]
C=C1C(=CC=C2CCCC3(C)C(C(C)=O)CCC23)CC(O)CC1O (stereo not drawn) [1α-Hydroxy-20-oxopregna-calciferol, 1α,3β-Dihydroxy-20-oxo-9,10-secopregna-5(Z),7,10(19)-triene]	anti-progestational activity	not to have such binding effect		
C=C1CC[C@H](O)C/C1=C/C=C1\CCC[C@@]2(C)[C@@H](C(C)=O)CC[C@H]12 [20-oxopregnacalciferol]			not to bind	suppress in vitro growth
